Consider three compounds from patent EP0503537B1, “6,9 Bis(substituted-amino)benzo-[g]isoquinoline-5,10-diones” (THE UNIVERSITY OF VERMONT, priority 1991, dated 1992).

Converted amounts (≈) assume the structure as drawn. “And” between values parts separate entries of the source, which are not always exact repeats. Identical values can stand only once. Counter-ions that a name gives are not always drawn. Marks after values point to notes of the source that are not given here.

The test system of series [1] is L1210 Murine leukemia cells. Nature of the series: In vitro growth inhibition of L1210 murine leukemia cells (Coulter Counter). The class given is cell-based. The note with it: Mus musculus, 72 hours of continuous exposure. The method, then:
The "in vitro" cytotoxic evaluation was also performed on L 1210 murine leukemia cells using the above mentioned cells maintained in suspension cultures (McCoy's 5A medium supplemented with 10% horse serum, glutamine, penicillin and streptomycin) grown in an humidified environment of 10% carbon dioxide and 90% air at 37°C. The compounds were dissolved in dimethylsulfoxide (DMSO) and added to the suspended cells in appropriate concentrations. After 72 hours of continuous exposure, the cell concentration was counted using a Coulter Counter and growth inhibition calculated using the formula: % growth inhibition = 1 - [cell number treated/cell number DMSO alone] x 100. [formula]
The IC50 was calculated from the growth inhibition data and they are reported in table VII in comparison to the prior art compound 5a (see table I for structure of 5a).
L1210 Murine leukemia cells were routinely maintained in suspension cultures in McCoy's 5A medium supplemented with 10% horse serum glutamine, penicillin and streptomycin and grown in a humidified environment of 10% carbon dioxide and 90% air at 37°C.
To assess the in vitro toxicity, each compound was dissolved in dimethylsulfoxide and added to 1 ml of L1210 cells (10^5 cells/tube) to attain final concentrations of 0.01, 0.1 and 1 µg of drug/ml of culture. After 72 hours of continues exposure to the drug, the cell concentration was determined with a Coulter Counter. Growth inhibition was calculated for each drug using the following formula: % growth inhibition = 1-[cell number treated/cell number DMSO alone] x 100. [formula]
The growth inhibition data was then used to calculate the IC50 value (the calculated drug concentration required to inhibit cell growth by 50% of control.

Series [2] relates to murine L 1210 leukemia. The note with it: in vitro, from J. Med. Chem. (1985), 28, 1124-1126; cited from earlier work.
Series [3] has as its system murine L 1210 leukemia. The following applies: in vivo, Dose 50 mg/kg; cited from earlier work.
In series [4] the test system is L1210 murine leukemia. Nature of the series: In vivo L1210 murine leukemia (ip/ip, d 1, 5, 9), protocol a, 10^6 cells. The note with it: days 1, 5 and 9, ip; for %T/C: mean survival time; for LTS: tumor-free at 60 days. The arrangement: species or system BDF1 mice. The method, then:
L 1210 leukemia cells were intraperitoneally (ip) injected in CDFl mice and treatment was initiated approximately 24 hours after tumor transplantation. Dosages of the drugs were administered ip according to preestablished protocols, usually at 4-day intervals. The studies were done over a 60-day period and the date of death for each animal was recorded. The % T/C was determined using the mean survival time (MST) for each group according to the formula % T/C = [(MST treated)/(MST control)] x 100 [formula]
(§1) • a) L1210 murine leukemia cells were maintained in vivo by weekly intraperitoneal (ip) injections of 10^6 cells in BDF1 mice. For test purposes, mice were inoculated i.p. with 10^6 L1210 cells and treatment was initiated 24 hours later. The desired dose of drug was administered on days 1, 5 and 9. Mice were observed daily for signs of toxicity and survival. The date of death was recorded for each animal that died or was sacrificed during the 60-day study. The mean survival time (MST) for each treatment group was calculated and the % T/C was determined using the following formula: % T/C = [(MST treated)/(MST control)] x 100 [formula] The results are reported in table X • b) L1210 murine leukemia cells were maintained in vivo by weekly intraperitoneal (ip) injections of 10^5 cells in DBA2 mice. For test purposes, CDF1 mice were inoculated i.p. with 10^5 L1210 cells and treatment was initiated 24 hours later. The desired dose of drug was administered on days 1, 5 and 9. Mice were observed daily for signs of toxicity and survival. The date of death was recorded for each animal that died or was sacrificed during the 60-day study. The median survival time (MST) for each treatment group was calculated and the % T/C was determined using the following formula: % T/C = [(MST treated)/(MST control)] x 100 [formula]

A further series concerns Lovo/DX. Nature of the series: MTT cytotoxicity assay on doxorubicin-resistant subline Lovo/DX. The format is cell-based, human. The method, then: (§2) The evaluation of the "in vitro" cytotoxic activity of the compounds of the invention was performed using a human colon adenocarcinoma cell line (Lovo) isolated from a metastatic nodule and a subline with aquired resistance to a number of antitumor agents, among which doxorubicin, VP-16 and vincristine. […] The compounds were tested according to the MTT assay (Mosman, T., "Rapid Colorimetric assay for cellular growth and survival: application to proliferation and cytotoxicity assay", J. Immunol. Methods, (1983), 65, 55-63; Green, L.M., "Rapid colorimetric assay for cell viability; application to the quantitation of cytotoxic and growth inhibitory lymphokines", J. Immunol. Methods, (1984), 70, 257-268) in comparison with mitoxantrone, ametantrone and doxorubicin.
(§3) In vitro biological evaluation: MTT assay on human colon adenocarcinoma Lovo cells.
(§4) The MTT assay was performed according to Mosmann, T., J. Immunol. Methods, (1983), 65, 55-63 and Green, L. M., J. Immunol. Methods, (1984), 70, 257-268.
(§5) Immediately before use, compounds and reference standards are dissolved in proper solvent and subsequently further diluted in complete culture medium. Human colon adenocarcinoma cells Lovo and the subline resistant to doxorubicin (Lovo/DX) (2.5. 10^4 cells/ml) are plated in 96-well plates and preincubated for 24 hours in culture medium. After this time, the cells are exposed to drugs for 144 hours, then the thiazolyl blue tetrazolium bromide solution (MTT solution) is added and the cells are reincubated for 4 hours. The supernatant is removed and 150 µl of dimethylsulfoxide are added to solubilize formazan crystals. The plate is read at 570 nm with microplate reader and the inhibiting concentration of 50% cellular growth (IC50; µg/ml) is calculated.

The test system of series [5] is human colon adenocarcinoma cell line (Lovo). Put plainly: MTT cytotoxicity assay on human colon adenocarcinoma Lovo cells. The format is cell-based. The note with it: 144 h, read-out: IC50 µg/ml±S.D. LoVo. The method, then:
as §2, §3, §4, §5
(Tetrazolium dyes change colour on reduction, which living cells bring about.)

Series [6] relates to P388 Murine Leukemia. Put plainly: In vivo P388 murine leukemia (iv/iv, d 1, 4, 7). The note with it: for T/C% (range): median survival time; for LTS: tumor free at 60 days. Here is the method:
P388 Murine Leukemia cells were maintained in vivo by serial intraperitoneal (i.p.) injections of 10^6 cells in DBA2 mice. For test purposes, CDF1 mice were inoculated intravenously (i.v.) with 10^6 P388 cells and treatment was initiated 24 hr later. The i.v. dose of drug was administered on days 1, 4 and 7. Mice were observed daily for signs of toxicity and survival. The date of death was recorded for each animal that died or was sacrificed during the 60 day study. The median survival time (MST) for each treatment group was calculated and the % T/C was determined using the following formula: % T/C = [(MST treated)/(MST control)] x 100 [formula]

The test system of series [7] is P388 Murine Leukemia. Put plainly: In vivo ascitic P388 murine leukemia (ip/ip, d 1, 5, 9). The arrangement: species or system CDF1 mice. The following applies: for % T/C (range): median survival time; for TOX: toxic deaths/total No. of mice. The method, then:
Treatment was initiated approximately 24 hours after tumor transplantation and dosages of the drug were administered ip (P388 ip/ip) or iv (P388 iv/iv) according to preestablished protocols, usually at 3-day (P388 iv/iv) or 4-day (P388 ip/ip) intervals. The studies were done over a 60-day period and the date of death for each animal was recorded. The % T/C was determined using the mean survival time (MST) for each group according to the formula % T/C = [(MST treated)/(MST control)] x 100 [formula]
P388 Murine Leukemia cells were maintained in vivo by serial intraperitoneal (ip) injections of 10^6 cells in DBA2 mice. For test purposes, CDF1 mice were inoculated i.p. with 10^6 P388 cells and treatment was initiated 24 hours later. The i.p dose of drug was administered on days 1, 5 and 9. Mice were observed daily for signs of toxicity and survival. The date of death was recorded for each animal that died or was sacrificed during the 60-day study. The median survival time (MST) for each treatment group was calculated and the % T/C was determined using the following formula: % T/C = [(MST treated)/(MST control)] x 100 [formula]

The test system of series [8] is L1210 murine leukemia. Put plainly: In vivo ascitic L1210 murine leukemia (ip/ip, d 1, 5, 9), protocol b, 10^5 cells. Further details: species or system CDF1 mice. The following applies: for %T/C: median survival time; for TOX: toxic deaths/total No. of mice; for LTS: tumor free at 60 days. Here is the method:
Dosages of the drugs were administered ip according to preestablished protocols, usually at 4-day intervals. The studies were done over a 60-day period and the date of death for each animal was recorded. The % T/C was determined using the mean survival time (MST) for each group according to the formula % T/C = [(MST treated)/(MST control)] x 100 [formula]
as §1, with “The mean survival time (MST) for each treatment group was calculated and the % T/C was determined using the following formula: % T/C = [(MST treated)/(MST control)] x 100 [formula] The results are reported in table X • b) L1210 murine leukemia cells were maintained in vivo by weekly intraperitoneal (ip) injections of 10^5 cells in DBA2 mice.” left out

Take `CN(C)CCNc1ccc(NCCN(C)C)c2c1C(=O)c1cccnc1C2=O` [Compound 5a, 6,9-bis{[2-(dimethylamino)ethyl]amino}benzo[g]quinoline-5,10-dione, reference compound]: the IC50 in series [1] worked out at 0.155 mg/L (≈ 0.406 µM). Further, in the series on murine L 1210 leukemia [2], the ID50 was 0.16 mg/L (≈ 0.419 µM). The T/C in the series on murine L 1210 leukemia [3] was 130. In the series with L1210 murine leukemia [4] (Dose 50 mg/kg), the “%T/C” value was found to be 129%.

On to `CN(C)CCNc1ccc(NCCN(C)C)c2c1C(=O)c1ccncc1C2=O` [Compound 10a, 6,9-Bis{[2-(dimethylamino)ethyl]amino}benzo[g]isoquinoline-5,10-dione], for which the IC50 in series [1] worked out at 0.006 mg/L (≈ 0.0157 µM); in the series with Lovo/DX (Homo sapiens, LoVo/DX, MTT assay, 144 hrs drug exposure, read-out: IC50 µg/ml±S.D. LoVo/Dx) it was 0.085 mg/L (≈ 0.223 µM); in series [5], 0.045 mg/L (≈ 0.118 µM). This compound yielded a R.I. with Lovo/DX (R.I. = (IC50 LoVo/Dx)/(IC50 LoVo)) of 1.9. Besides, the “cross resistance with mitoxantrone and ametantrone” value with Lovo/DX (resistant subline Lovo/DX) was “no cross resistance”. The “T/C% (range)” value is 172% and 156% in the series with P388 Murine Leukemia [6] (18 mg/kg/day iv days 1,4,7); 188% and 167% in the series on P388 Murine Leukemia [6] (27 mg/kg/day iv days 1,4,7); 183% and 156% with P388 Murine Leukemia [6] (40 mg/kg/day iv days 1,4,7). The LTS with P388 Murine Leukemia [6] (18 mg/kg/day iv days 1,4,7) is 0/14; with P388 Murine Leukemia [6] (27 mg/kg/day iv days 1,4,7) it was 0/17; in the series on P388 Murine Leukemia [6] (40 mg/kg/day iv days 1,4,7), 0/16. The “%T/C” value in the series with L1210 murine leukemia [4] (Dose 50 mg/kg) turned out to be 151%.

In turn, `NCCNc1ccc(NCCN)c2c1C(=O)c1ccncc1C2=O` [Compound 10i.HCl, 6,9-bis{[2-(amino)ethyl]amino}benzo[g]isoquinoline-5,10-dione] had an IC50 in series [1] of 0.05 mg/L. Besides, the “LTS (day 60)” value with P388 Murine Leukemia [7] (3.1 mg/kg/day ip days 1,5,9) is reported as 0/8; in the series with P388 Murine Leukemia [7] (6.25 mg/kg/day ip days 1,5,9) it was 0/8; in the series on P388 Murine Leukemia [7] (12.5 mg/kg/day ip days 1,5,9), 0/8; in the series on P388 Murine Leukemia [7] (25 mg/kg/day ip days 1,5,9), 2/8. For the same compound, the “% T/C (range)” value in the series on P388 Murine Leukemia [7] (3.1 mg/kg/day ip days 1,5,9) was 144%; in the series on P388 Murine Leukemia [7] (6.25 mg/kg/day ip days 1,5,9) it was 196%; with P388 Murine Leukemia [7] (12.5 mg/kg/day ip days 1,5,9) it was 239%; in the series with P388 Murine Leukemia [7] (25 mg/kg/day ip days 1,5,9) it was 367%. Further, the TOX in the series on P388 Murine Leukemia [7] (3.1 mg/kg/day ip days 1,5,9) is 0/8; in the series with P388 Murine Leukemia [7] (6.25 mg/kg/day ip days 1,5,9) it was 1/8; with P388 Murine Leukemia [7] (12.5 mg/kg/day ip days 1,5,9), 0/8; with P388 Murine Leukemia [7] (25 mg/kg/day ip days 1,5,9), 0/8; with L1210 murine leukemia [8] (6.25 mg/kg/day ip days 1,5,9), 0/8; in the series with L1210 murine leukemia [8] (12.5 mg/kg/day ip days 1,5,9) it was 0/8. Further, the TOX in the series with L1210 murine leukemia [8] (25 mg/kg/day ip days 1,5,9) is given as 1/7. Further, the “%T/C” value in the series with L1210 murine leukemia [8] (6.25 mg/kg/day ip days 1,5,9) is listed as 156%; in the series with L1210 murine leukemia [8] (12.5 mg/kg/day ip days 1,5,9), 175%; in the series with L1210 murine leukemia [8] (25 mg/kg/day ip days 1,5,9, value calculated on dead mice) it was 250* %; in the series on L1210 murine leukemia [4] (Dose 12.5 mg/kg), 265%; in the series with L1210 murine leukemia [4] (Dose 25 mg/kg), 265%. In addition, the LTS in the series with L1210 murine leukemia [8] (6.25 mg/kg/day ip days 1,5,9) is given as 0/8; in the series on L1210 murine leukemia [8] (12.5 mg/kg/day ip days 1,5,9) it was 1/8; in the series with L1210 murine leukemia [8] (25 mg/kg/day ip days 1,5,9) it was 4/7; in the series on L1210 murine leukemia [4] (Dose 12.5 mg/kg) it was 4/6; with L1210 murine leukemia [4] (Dose 25 mg/kg) it was 5/6.
